Patent US7812014B2, “Bicyclic 6-alkylidene-penems as β-lactamase inhibitors” (priority 2002, dated 2010)
pIC50: −log10 of the molar value. Structures can show the parent of a compound that is named as a salt. Where two headings read alike, the source gives them in different places.

Tests used:
[1] = tested on: P. aeruginos GC1764 (Ampc); experiment: Antimicrobial susceptibility testing, microbroth dilution, piperacillin + inhibitor; type: cell-based; details: piperacillin combined with constant 4 ug/ml of inhibitor; 35° C. for 18 hours
Protocol: (§1) Antimicrobial susceptibility testing. The in vitro activities of the antibiotics were determined by the microbroth dilution method as recommended by the National Committee for Clinical Laboratory Standards (NCCLS). (NCCLS. 2000. Methods for Dilution Antimicrobial Susceptibility Tests for Bacteria That Grow Aerobically; Approved Standards: M7-A5, vol. 19. National Committe for Clinical Laboratory Standards, Villanova, Pa.). Mueller-Hinton II broth (MHBII) (BBL Cockeysville, Md.), was used for the testing procedure. Microtiter plates containing 50 μl per well of two-fold serial dilutions of piperacillin combined with a constant amount (4 ug/ml) of a B-lactamase inhibitor were inoculated with 50 μl of inoculum to yield the appropriate density (10^5 CFU/ml) in 100·I final volume. The plates were incubated for 18-22 hours at 35° C. in ambient air.

[2] = tested on: S. Marcescens GC1781 Sme-1 + Ampc; experiment: as above; type: cell-based; details: piperacillin combined with constant 4 ug/ml of inhibitor; 35° C. for 18 hours
Protocol: as §1

E. Cloacae GC1477 (Ampc) = experiment: as above; type: cell-based; details: piperacillin combined with constant 4 ug/ml of inhibitor; 35° C. for 18 hours
Protocol: as §1

E. Coli GC22033 = experiment: as above; type: cell-based; details: piperacillin combined with constant 4 ug/ml of inhibitor; 35° C. for 18 hours
Protocol: as §1, with “air. […] The MIC data obtained by the above said procedure are enlisted in Table 2.” for “air.”

E. Coli GC2847 (TEM-1) = experiment: as above; type: cell-based; details: piperacillin combined with constant 4 ug/ml of inhibitor; 35° C. for 18 hours
Protocol: as §1, with “air. […] The MIC data obtained by the above said procedure are enlisted in Table 2.” for “air.”

E. Coli GC2844 = experiment: as above; type: cell-based; details: piperacillin combined with constant 4 ug/ml of inhibitor; 35° C. for 18 hours
Protocol: as §1, with “air. […] The MIC data obtained by the above said procedure are enlisted in Table 2.” for “air.”

E. Coli GC2894 (Ampc) = experiment: as above; type: cell-based; details: piperacillin combined with constant 4 ug/ml of inhibitor; 35° C. for 18 hours
Protocol: as §1, with “air. […] The MIC data obtained by the above said procedure are enlisted in Table 2.” for “air.”

E. Coli GC2920 (IRT-2) = experiment: as above; type: cell-based; details: piperacillin combined with constant 4 ug/ml of inhibitor; 35° C. for 18 hours
Protocol: as §1, with “air. […] The MIC data obtained by the above said procedure are enlisted in Table 2.” for “air.”

[3] = tested on: Clinical isolates that have been adapted to cause infection in mice; experiment: In vivo antibacterial protection, 7 day survival of infected mice; parameters: species or system mice strain CD-1
Source text: In Vivo Antibacterial Protection
Female mice strain CD-1, approximately 18-22 grams, were received from Charles River Laboratories and quarantined 7 days prior to use. In addition, mice may be rendered neutropenic using cytoxan.
Clinical isolates that have been adapted to cause infection in mice, are used in the experiment, including infections with strains of E. coli, K. pneumoniae, M. morganii, E. cloacae, S. marcescens, C. freundii, staphylococci, streptococci, P. aeruginosa and N. gonorrhoeae.
Mice are challenged by injecting 0.5 ml intraperitoneally or 0.05 ml intranasally of a predetermined bacterial inoculum suspended in broth, saline or hog gastric mucin (supplemented with dried bovine hemoglobin for N. gonorrhoeae). […] Antibacterial doses (dose concentration prepared by two fold serial dilutions of the antibiotic) are dissolved or suspended in 0.2% aqueous agar or methocel, phosphate buffered saline or an adjuvant are administered orally, subcutaneously or intravenously in the following manner: • a) Orally or subcutaneously: Dose volume of 0.5 ml administered ½ hr after infection. A second dose may be administered 3 hr. after infection for treatment of infections with more virulent organisms. • b) Intravenously: Dose volume of 0.2 ml, administered ½ hr. after infection. For the treatment of infections with more virulent organisms, more doses, up to 48 hr may be administered. (Intravenous dosing will not exceed 3 doses/24 hr period.) • c) Oral pretreatment: Under special circumstances, the pH of the stomach needs to be adjusted in order to increase the gastric stability of the antibiotic. For this purpose, 0.5 ml of phosphate buffered saline (pH7.8, 0.06M) (or specific approved adjuvant) is administered orally ½ hr after infection, followed 5 minutes later by 0.5 ml of antibiotic (also orally) contained in phosphate buffered saline (pH7.8, 0.06M). Animal Species
A detailed explanation as to the number of animals needed for the determination of in vivo efficacy follows: • A) Novel antibiotics are tested at 5 different dose levels with 5 mice per dose level at each of three routes of administration (oral, subcutaneous and intravenous). […] This would require 25 mice/route with 3 routes/antibiotic or 75 mice per novel compound tested. One to two novel antibiotics will be tested per experiment (75-150 mice) • B) The effectiveness of the new compound must be compared to that of a standard, or antibiotic of known effectiveness. Known or previously tested antibiotics are tested at 5 dose levels with 5 mice per dose level by a single route of administration, for a total of 25 mice/antibiotic. Usually 3-6 antibiotics will be tested per experiment. (75-150 mice). • C) Untreated controls—In each of the above tests, untreated animals are infected with 3 different concentrations of bacterial inoculum with 10 mice per concentration (30 mice total in each and every test). These untreated controls are used to determine and maintain the infection level between 10-100 LD50s as required for test to test comparison and validity. Determination of Protective Effects of Antibacterial Agents:
The protective effects of the antibacterial agent(s) are measured by the survival of the infected untreated as compared to the treated animals. […] A census of survivors is taken twice daily and at that time dead as well as moribund animals are removed. […] The test is performed three times on separate days to provide a statistically valid number of animals and to minimize variation in test results on a day to day and test to test basis.

[4] = molecular target: class A β-lactamase TEM-1 (Escherichia coli, UniProt P62593); experiment: IC50 determination, β-lactamase inhibition (nitrocefin, spectrophotometric); type: biochemical, E. coli; details: enzyme 4.3 nM; 10 minutes preincubation at 25° C.; nitrocefin 50 μg/ml; pH 7.0
Protocol: (§2) IC50 Determination for the Penem Inhibitor
(§3) β-Lactamase inhibitory activity of the penem inhibitors was determined spectrophotometrically as described by Bush et al., [Bush, K., Macalintal, C., Rasmussen, B. A., Lee, V. and Yang, Y. Antimicrobial Agents and Chemotherapy 1993, 37, 851]. Homogeneously purified class A β-lactamases TEM-1 from E. coli and Imi-1 from Enterobacter cloacae, class B enzyme CcrA from Bacteroides fragilis and class C enzyme AmpC from Enterobacter cloaca were employed in the assay. The enzyme concentrations for TEM-1, Imi-1, CcrA and AmpC were 4.3, 7.1, 1.2 and 2.1 nM, respectively. A wide range of inhibitor concentrations were prepared in 50 mM PO4, pH 7.0 to include the possible IC50 values. The substrate used to initiate the enzyme reaction was nitrocefin at 50 μg/ml in the same buffer as the inhibitor. Initially the enzyme and inhibitor (20 μl each) were preincubated for 10 minutes at 25° C. prior to the addition of 160 μl volume of nitrocefin. Initial rates of hydrolysis were monitored for 5 minutes at 495 nm using a Molecular Devices Spectra Max 250 with kinetic protocol of SoftMax Program. Readings from the Spectra Max 250 were exported and transferred to Microsoft Excel. The percent of inhibition of each inhibitor concentration was calculated based on the control enzyme activity. The inhibitor concentration that caused a 50% reduction in the enzymatic activity (IC50) was determined graphically.

[5] = molecular target: class A β-lactamase Imi-1 (Enterobacter cloacae, UniProt Q46991); experiment: as above; type: biochemical; details: for IC50: enzyme 7.1 nM, 10 minutes preincubation at 25° C., nitrocefin 50 μg/ml, pH 7.0, read-out: IC50 (nM) Class A Imi
Protocol: as §2, §3

class B enzyme CcrA = class B enzyme CcrA (Bacteroides fragilis, UniProt P25910); experiment: as above; type: biochemical; details: enzyme 1.2 nM; 10 minutes preincubation at 25° C.; nitrocefin 50 μg/ml; pH 7.0; read-out: IC50 (nM) Class B Ccr
Protocol: as §2, §3

class C enzyme AmpC = class C enzyme AmpC (Enterobacter cloacae, UniProt P05364); experiment: biochemical; parameters: species or system Enterobacter cloaca; details: for IC50: enzyme 2.1 nM, 10 minutes preincubation at 25° C., nitrocefin 50 μg/ml, pH 7.0, read-out: IC50 (nM) Class C AmpC
Protocol: as §2, §3

S. aureus GC2216 = experiment: Antimicrobial susceptibility testing, microbroth dilution, piperacillin + inhibitor; type: cell-based; details: piperacillin combined with constant 4 ug/ml of inhibitor; 35° C. for 18 hours
Protocol: as §1, with “air. […] The MIC data obtained by the above said procedure are enlisted in Table 2.” for “air.”

[6] = Mus musculus, 168 h, Ratio of Piperacillin vs. Inhibitor 4:1, read-out: ED50
[7] = Mus musculus, 168 h, Ratio of Piperacillin vs. Inhibitor not given, read-out: ED50

Chain of class C enzyme AmpC (P05364 21-381): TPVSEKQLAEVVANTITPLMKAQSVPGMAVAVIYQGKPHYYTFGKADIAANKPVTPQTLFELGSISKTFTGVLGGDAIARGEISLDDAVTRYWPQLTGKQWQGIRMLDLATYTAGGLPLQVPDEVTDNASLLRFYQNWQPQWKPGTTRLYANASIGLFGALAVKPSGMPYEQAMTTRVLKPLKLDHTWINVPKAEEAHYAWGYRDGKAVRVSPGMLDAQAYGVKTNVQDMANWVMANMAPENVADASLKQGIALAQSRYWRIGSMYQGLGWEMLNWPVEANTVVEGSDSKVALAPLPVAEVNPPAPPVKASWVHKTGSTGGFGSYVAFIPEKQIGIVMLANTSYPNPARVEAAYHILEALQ
Chain of class A β-lactamase TEM-1 (P62593 24-286 limits assumed): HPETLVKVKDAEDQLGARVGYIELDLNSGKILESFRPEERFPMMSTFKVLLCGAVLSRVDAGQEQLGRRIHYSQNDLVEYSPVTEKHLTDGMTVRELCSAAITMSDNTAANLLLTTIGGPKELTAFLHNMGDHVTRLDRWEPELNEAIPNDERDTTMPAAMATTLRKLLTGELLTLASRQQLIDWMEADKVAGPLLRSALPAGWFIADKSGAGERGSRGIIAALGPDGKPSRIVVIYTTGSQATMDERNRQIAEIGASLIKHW
Chain of class A β-lactamase Imi-1 (Q46991 28-292): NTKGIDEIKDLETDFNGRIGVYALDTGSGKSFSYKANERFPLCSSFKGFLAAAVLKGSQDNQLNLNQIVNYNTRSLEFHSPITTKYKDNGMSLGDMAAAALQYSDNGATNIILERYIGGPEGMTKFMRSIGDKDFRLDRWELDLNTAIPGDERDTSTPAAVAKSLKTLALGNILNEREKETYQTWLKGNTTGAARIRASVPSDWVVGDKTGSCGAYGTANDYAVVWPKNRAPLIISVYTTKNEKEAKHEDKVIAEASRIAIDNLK
Chain of class B enzyme CcrA (P25910 19-249): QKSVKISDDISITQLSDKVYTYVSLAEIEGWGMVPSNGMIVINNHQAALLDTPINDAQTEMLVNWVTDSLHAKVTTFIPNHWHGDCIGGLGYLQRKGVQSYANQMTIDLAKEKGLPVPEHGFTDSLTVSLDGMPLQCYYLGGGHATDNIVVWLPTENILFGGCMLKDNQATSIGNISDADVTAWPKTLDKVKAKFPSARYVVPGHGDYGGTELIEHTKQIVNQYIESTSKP

CN1Cc2nc(/C=C3/C(=O)N4C(C(=O)O)=CS[C@H]34)cn2CC1=O (as salt: sodium) [Example 10, (5R),(6Z)-6-(7-Methyl-6-oxo-5,6,7,8-tetrahydro-imidazo[1,2-a]pyrazin-2-ylmethylene)-7-oxo-4-thia-1-aza-bicyclo[3.2.0]hept-2-ene-2-carboxylic acid sodium salt]
melting point: 115 to 117 °C (dec.)

CC(=O)N1CCc2sc(/C=C3/C(=O)N4C(C(=O)[O-])=CS[C@H]34)cc2C1.[Na+] (single isomer, unassigned) [Example 34]
Minimal Inhibitory Concentration P. aeruginos GC1764 (Ampc) [1]: 32 µg/mL | Minimal Inhibitory Concentration S. Marcescens GC1781 Sme-1 + Ampc [2]: 2 µg/mL | Minimal Inhibitory Concentration E. Cloacae GC1477 (Ampc) (E. Cloacae GC1477 (Ampc)): >64 µg/mL | Minimal Inhibitory Concentration E. Coli GC22033 (E. Coli GC22033): 2 µg/mL | Minimal Inhibitory Concentration E. Coli GC2847 (TEM-1) (E. Coli GC2847 (TEM-1)): 32 µg/mL | Minimal Inhibitory Concentration E. Coli GC2844 (E. Coli GC2844): 4 µg/mL | Minimal Inhibitory Concentration E. Coli GC2894 (Ampc) (E. Coli GC2894 (Ampc)): 32 µg/mL | Minimal Inhibitory Concentration E. Coli GC2920 (IRT-2) (E. Coli GC2920 (IRT-2)): 4 µg/mL | ED50 ([3]; Ratio of Piperacillin vs. Inhibitor not given): 32 mg/kg

O=C(O)C1=CS[C@@H]2/C(=C\c3cc4c(s3)CCN(Cc3ccccc3)C4)C(=O)N12 [Example 1, (5R,6Z)-6-[(5-benzyl-4,5,6,7-tetrahydrothieno[3,2-c]pyridin-2-yl)methylene]-7oxo-4-thia-1-azabicyclo[3.2.0]hept-2-ene-2-carboxylic acid]
IC50 [4]: 4.2 nM | melting point: 198 °C | IC50 [5]: 2.1 nM | IC50 (class B enzyme CcrA): 260 nM | ED50 ([3]; Mus musculus, 168 h, Ratio of Piperacillin vs. Inhibitor 2:1, read-out: ED50): 32 to 64 mg/kg | IC50 (class C enzyme AmpC): 12 nM

COc1ccc(CN2CCc3sc(/C=C4/C(=O)N5C(C(=O)O)=CS[C@H]45)cc3C2)cc1 [Example 4]
Minimal Inhibitory Concentration P. aeruginos GC1764 (Ampc) [1]: 32 µg/mL | Minimal Inhibitory Concentration S. Marcescens GC1781 Sme-1 + Ampc [2]: 2 µg/mL | Minimal Inhibitory Concentration E. Cloacae GC1477 (Ampc) (E. Cloacae GC1477 (Ampc)): 64 µg/mL | Minimal Inhibitory Concentration E. Coli GC22033 (E. Coli GC22033): 2 µg/mL | Minimal Inhibitory Concentration E. Coli GC2847 (TEM-1) (E. Coli GC2847 (TEM-1)): 8 µg/mL | Minimal Inhibitory Concentration S. aureus GC2216 (S. aureus GC2216): 0.50 µg/mL | Minimal Inhibitory Concentration E. Coli GC2844 (E. Coli GC2844): 2 µg/mL | Minimal Inhibitory Concentration E. Coli GC2894 (Ampc) (E. Coli GC2894 (Ampc)): 2 µg/mL | Minimal Inhibitory Concentration E. Coli GC2920 (IRT-2) (E. Coli GC2920 (IRT-2)): 2 µg/mL | ED50 ([3]; Ratio of Piperacillin vs. Inhibitor 4:1): 32 to 64 mg/kg

O=C(O)C1=CS[C@@H]2/C(=C\c3cc4c(s3)CCN(C(=O)c3cccnc3)C4)C(=O)N12 [Example 22]
IC50 [4]: 6.1 nM | melting point: 195 °C | IC50 [5]: 42 nM | IC50 (class B enzyme CcrA): 110 nM | ED50 [3, 6]: 128 mg/kg | IC50 (class C enzyme AmpC): 11 nM

O=C(O)C1=CS[C@@H]2/C(=C\c3cc4c(s3)CCN(C(=O)Cc3ccccc3)C4)C(=O)N12 [Example 23]
IC50 [4]: 4.6 nM | melting point: 166 to 169 °C | IC50 [5]: 40 nM | IC50 (class B enzyme CcrA): 140 nM | ED50 [3, 6]: 128 mg/kg | IC50 (class C enzyme AmpC): 7.8 nM

O=C([O-])C1=CS[C@@H]2/C(=C\c3cc4n(n3)CCO4)C(=O)N12.[Na+] [Example 33, (5R)(6Z)-6-(2,3-Dihydropyrazolo[5,1-b]oxazol-6-ylmethylene)-7-oxo-4-thia-1-azabicyclo[3.2.0]hept-2-ene-2-carboxylic acid, sodium salt]
IC50 [4]: 1.1 nM | IC50 [5]: 59 nM | IC50 (class B enzyme CcrA): 41 nM | ED50 [3, 7]: > 64 mg/kg | pIC50 (class C enzyme AmpC): 9.07

O=C(O)C1=CS[C@@H]2/C(=C\c3cc4n(n3)CCOC4)C(=O)N12 [Example 35, (5R,6Z)-6-(6,7-dihydro-4H-pyrazolo[5,1-c][1,4]oxazin-2-ylmethylene)-7-oxo-4-thia-1-azabicyclo[3.2.0]hept-2-ene-2-carboxylic acid]
IC50 [4]: 4.2 nM | pIC50 [5]: 6.64 | IC50 (class B enzyme CcrA): 30 nM | ED50 [3, 7]: 19 mg/kg | IC50 (class C enzyme AmpC): 6.1 nM
